Nine compounds from PubChem BioAssay (NCI) can be followed below.

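Method: 48-hour compound exposure of cells in 96-well plates, five concentrations, linear interpolation of endpoints. TGI denotes the concentration required for complete inhibition of growth.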

Some test systems named below: UACC-62 melanoma; MOLT-4 leukemia; NCI-H522 lung; 786-0 renal; IGROV1 ovarian; SK-OV-3 ovarian; HCT-15 colon; NCI-H460 lung; HL-60(TB) leukemia; SW-620 colon; UO-31 renal; COLO 205 colon; KM12 colon; EKVX NSCLC; OVCAR-4 ovarian; SF-268 CNS; SF-295 CNS.
Common to all, as to assay: NCI tumour cell line growth inhibition, 48 h

As to `COC(=O)c1c/c(=N\NC(=O)CC(=O)Nc2ccccc2OC)c2ccccc2o1`, the TGI in the assay with UACC-62 melanoma, in the assay with MOLT-4 leukemia, with NCI-H522 lung, in the assay on 786-0 renal, in the assay with IGROV1 ovarian and in the assay with SK-OV-3 ovarian was greater than 100 µM in each case. Also, the TGI in the assay on HCT-15 colon, in the assay with NCI-H460 lung, with HL-60(TB) leukemia, with SW-620 colon, in the assay with UO-31 renal and with COLO 205 colon was greater than 100 µM in each case. Moreover, the TGI in the assay on KM12 colon, with EKVX NSCLC, in the assay on OVCAR-4 ovarian and with SF-268 CNS was greater than 100 µM each time.

Take `C/C(CC(=O)Nc1cc(Cl)c(Cl)cc1Cl)=N\NC(N)=O`: the TGI in the assay on UACC-62 melanoma, with MOLT-4 leukemia, in the assay with NCI-H522 lung, in the assay with 786-0 renal, in the assay with SF-295 CNS and in the assay on IGROV1 ovarian was greater than 100 µM each time. The TGI in the assay with SK-OV-3 ovarian, with HL-60(TB) leukemia, in the assay with SW-620 colon, with UO-31 renal, in the assay on COLO 205 colon and in the assay on KM12 colon was greater than 100 µM each time. Also, the TGI in the assay on EKVX NSCLC and in the assay on SF-268 CNS was greater than 100 µM throughout.

In the case of `C/C(CC(=O)Nc1ccc(C)cc1C)=N/N=C(N)N`, the TGI in the assay with UACC-62 melanoma, in the assay on MOLT-4 leukemia, in the assay on NCI-H522 lung, in the assay with 786-0 renal, in the assay with SF-295 CNS and in the assay with IGROV1 ovarian was greater than 100 µM throughout. Further, the TGI in the assay on SK-OV-3 ovarian, with NCI-H460 lung, with HL-60(TB) leukemia, in the assay with SW-620 colon, with UO-31 renal and in the assay with COLO 205 colon was greater than 100 µM throughout. The TGI with KM12 colon, in the assay with EKVX NSCLC and in the assay with SF-268 CNS was greater than 100 µM throughout.

Take `CSC(C1c2ccccc2N(c2ccc(C)cc2)C2=NC(=O)N(C)C(=O)C21Cl)S(=O)(=O)c1ccc(C)cc1` (stereo not drawn): the TGI with UACC-62 melanoma came to 52 µM; in the assay with MOLT-4 leukemia it was 32 µM; in the assay on NCI-H522 lung it was 31.9 µM; in the assay on 786-0 renal, 38.4 µM; in the assay with SF-295 CNS it was 62.4 µM; in the assay with IGROV1 ovarian, 85.6 µM. In addition, the TGI with SK-OV-3 ovarian was determined as 87.6 µM; with NCI-H460 lung, 64.8 µM; in the assay on HL-60(TB) leukemia, 12.6 µM; in the assay with SW-620 colon it was 85.9 µM; in the assay with UO-31 renal, 69.9 µM; with COLO 205 colon it was 36.6 µM. Further, the TGI is greater than 100 µM in the assay on EKVX NSCLC, 34.6 µM with OVCAR-4 ovarian and 62.5 µM in the assay on SF-268 CNS.

As for `CC(C)(C)C1C=C(Sc2ccccc2)C(=O)O1` (stereo not drawn), the TGI was greater than 100 µM in the assay with UACC-62 melanoma; greater than 100 µM in the assay on MOLT-4 leukemia; 87.8 µM in the assay with NCI-H522 lung; greater than 100 µM in the assay with 786-0 renal; greater than 100 µM with SF-295 CNS; greater than 100 µM in the assay with IGROV1 ovarian. Also, the TGI with SK-OV-3 ovarian was greater than 100 µM; in the assay on HCT-15 colon, greater than 100 µM; in the assay with NCI-H460 lung, greater than 100 µM; in the assay with HL-60(TB) leukemia, 55.7 µM; with SW-620 colon, greater than 100 µM; in the assay on UO-31 renal, 92.1 µM. Also, the TGI was 54.4 µM in the assay on COLO 205 colon; greater than 100 µM in the assay on KM12 colon; greater than 100 µM in the assay with EKVX NSCLC; greater than 100 µM in the assay on OVCAR-4 ovarian; greater than 100 µM in the assay with SF-268 CNS.

Turning to `N#Cc1cc([N+](=O)[O-])ccc1NC(=O)C(=O)Nc1n[nH]c(N)n1`, the TGI in the assay with UACC-62 melanoma, in the assay with MOLT-4 leukemia, with NCI-H522 lung, in the assay on 786-0 renal, in the assay on IGROV1 ovarian and in the assay with SK-OV-3 ovarian was greater than 100 µM throughout. For the same compound, the TGI in the assay on HCT-15 colon, in the assay on NCI-H460 lung, with HL-60(TB) leukemia, in the assay on SW-620 colon, in the assay on UO-31 renal and with COLO 205 colon was greater than 100 µM each time. In addition, the TGI in the assay with KM12 colon, with EKVX NSCLC, in the assay with OVCAR-4 ovarian and in the assay on SF-268 CNS was greater than 100 µM each time.

Regarding `CC(C)C(=O)NC(=S)Nc1ccc([N+](=O)[O-])cc1C#N`, the TGI in the assay with UACC-62 melanoma, in the assay with MOLT-4 leukemia, in the assay on NCI-H522 lung, with 786-0 renal, with SF-295 CNS and with IGROV1 ovarian was greater than 100 µM each time. For the same compound, the TGI with SK-OV-3 ovarian, in the assay with HCT-15 colon, in the assay with NCI-H460 lung, in the assay on HL-60(TB) leukemia, with SW-620 colon and in the assay with UO-31 renal was greater than 100 µM in each case. Moreover, the TGI was 52.7 µM in the assay on COLO 205 colon; greater than 100 µM with KM12 colon; greater than 100 µM in the assay on EKVX NSCLC; greater than 100 µM in the assay with OVCAR-4 ovarian; greater than 100 µM with SF-268 CNS.

In the case of `CCOC(=O)C1=C(OC(OCC)C(CC)[Se]c2ccccc2)CCCC1` (stereo not drawn), the TGI is 62.9 µM in the assay on UACC-62 melanoma; 52.1 µM in the assay with MOLT-4 leukemia; 28.4 µM in the assay with NCI-H522 lung; 28.9 µM with 786-0 renal; 55.6 µM with SF-295 CNS; greater than 100 µM in the assay on IGROV1 ovarian. Besides, the TGI in the assay with SK-OV-3 ovarian was greater than 100 µM; in the assay on HCT-15 colon, 41.2 µM; with NCI-H460 lung, greater than 100 µM; in the assay on HL-60(TB) leukemia it was 47.8 µM; with UO-31 renal, greater than 100 µM; in the assay on COLO 205 colon, greater than 100 µM. The TGI in the assay with KM12 colon is greater than 100 µM; in the assay with EKVX NSCLC, 78.9 µM; in the assay on OVCAR-4 ovarian it was 33 µM; with SF-268 CNS, 41.6 µM.

With `COC(=O)/C=C/c1cc(OC)c(OC)c(OC)c1`, the TGI in the assay on UACC-62 melanoma, with MOLT-4 leukemia, with NCI-H522 lung, in the assay on 786-0 renal, in the assay on SF-295 CNS and in the assay with IGROV1 ovarian was greater than 100 µM in each case. For the same compound, the TGI in the assay with SK-OV-3 ovarian, in the assay with HCT-15 colon, in the assay with NCI-H460 lung, in the assay on HL-60(TB) leukemia, in the assay on SW-620 colon and in the assay on UO-31 renal was greater than 100 µM in each case. Moreover, the TGI in the assay with COLO 205 colon, in the assay with KM12 colon, with EKVX NSCLC, in the assay on OVCAR-4 ovarian and in the assay with SF-268 CNS was greater than 100 µM throughout.
